Activity calls are given as the source filed them.
Tests used:
ORF 73 = biological target: T1, ORF 73 (Human herpesvirus 8, UniProt O40947); experiment: KSHV LANA DNA-binding disruption – biochemical, fluorescence polarization, cherry-picked samples, dose response (AID 504725); set-up: species or system Human gammaherpesvirus 8;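 note: fluorescence polarization of a labeled DNA duplex reporting LANA DNA binding; potency is for inhibitors that block LANA binding to the DNA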
T1 sequence (O40947 whole entry): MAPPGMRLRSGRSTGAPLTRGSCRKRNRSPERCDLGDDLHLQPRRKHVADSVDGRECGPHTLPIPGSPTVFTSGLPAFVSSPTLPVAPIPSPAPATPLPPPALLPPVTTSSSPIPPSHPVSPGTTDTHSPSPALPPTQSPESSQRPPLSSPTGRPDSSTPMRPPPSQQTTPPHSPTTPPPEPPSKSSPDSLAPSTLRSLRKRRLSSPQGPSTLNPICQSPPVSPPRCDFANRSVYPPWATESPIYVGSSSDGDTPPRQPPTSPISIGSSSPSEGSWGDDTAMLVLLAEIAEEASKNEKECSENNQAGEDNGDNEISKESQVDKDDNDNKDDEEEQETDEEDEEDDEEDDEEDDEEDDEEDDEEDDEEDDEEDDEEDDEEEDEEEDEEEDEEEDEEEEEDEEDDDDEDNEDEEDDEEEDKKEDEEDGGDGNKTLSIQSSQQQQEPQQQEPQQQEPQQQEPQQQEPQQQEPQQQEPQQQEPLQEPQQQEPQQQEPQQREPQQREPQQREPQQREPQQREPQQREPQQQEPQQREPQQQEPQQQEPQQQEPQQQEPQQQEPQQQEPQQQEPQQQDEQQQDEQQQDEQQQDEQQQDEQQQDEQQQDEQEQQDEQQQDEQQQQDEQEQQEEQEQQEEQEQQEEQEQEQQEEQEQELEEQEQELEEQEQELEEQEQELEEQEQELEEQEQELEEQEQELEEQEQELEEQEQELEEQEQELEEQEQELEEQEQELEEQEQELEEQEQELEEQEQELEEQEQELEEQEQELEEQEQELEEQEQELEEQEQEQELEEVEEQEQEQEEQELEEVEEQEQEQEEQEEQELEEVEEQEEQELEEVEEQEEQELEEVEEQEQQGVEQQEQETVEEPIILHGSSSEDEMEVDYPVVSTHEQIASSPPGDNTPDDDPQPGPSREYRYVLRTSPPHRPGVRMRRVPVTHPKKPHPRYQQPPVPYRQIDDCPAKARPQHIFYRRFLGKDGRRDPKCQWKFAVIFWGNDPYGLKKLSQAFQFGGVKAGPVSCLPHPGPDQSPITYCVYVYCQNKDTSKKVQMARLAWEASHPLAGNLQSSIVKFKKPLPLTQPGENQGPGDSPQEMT

[1] = biological target: T2, Voltage-gated N-type calcium channel alpha-1B subunit/Amyloid beta A4 precursor protein-binding family A member 1 (Homo sapiens, UniProt Q00975+Q02410); type: protein assay
T2 sequence (Q00975 whole entry): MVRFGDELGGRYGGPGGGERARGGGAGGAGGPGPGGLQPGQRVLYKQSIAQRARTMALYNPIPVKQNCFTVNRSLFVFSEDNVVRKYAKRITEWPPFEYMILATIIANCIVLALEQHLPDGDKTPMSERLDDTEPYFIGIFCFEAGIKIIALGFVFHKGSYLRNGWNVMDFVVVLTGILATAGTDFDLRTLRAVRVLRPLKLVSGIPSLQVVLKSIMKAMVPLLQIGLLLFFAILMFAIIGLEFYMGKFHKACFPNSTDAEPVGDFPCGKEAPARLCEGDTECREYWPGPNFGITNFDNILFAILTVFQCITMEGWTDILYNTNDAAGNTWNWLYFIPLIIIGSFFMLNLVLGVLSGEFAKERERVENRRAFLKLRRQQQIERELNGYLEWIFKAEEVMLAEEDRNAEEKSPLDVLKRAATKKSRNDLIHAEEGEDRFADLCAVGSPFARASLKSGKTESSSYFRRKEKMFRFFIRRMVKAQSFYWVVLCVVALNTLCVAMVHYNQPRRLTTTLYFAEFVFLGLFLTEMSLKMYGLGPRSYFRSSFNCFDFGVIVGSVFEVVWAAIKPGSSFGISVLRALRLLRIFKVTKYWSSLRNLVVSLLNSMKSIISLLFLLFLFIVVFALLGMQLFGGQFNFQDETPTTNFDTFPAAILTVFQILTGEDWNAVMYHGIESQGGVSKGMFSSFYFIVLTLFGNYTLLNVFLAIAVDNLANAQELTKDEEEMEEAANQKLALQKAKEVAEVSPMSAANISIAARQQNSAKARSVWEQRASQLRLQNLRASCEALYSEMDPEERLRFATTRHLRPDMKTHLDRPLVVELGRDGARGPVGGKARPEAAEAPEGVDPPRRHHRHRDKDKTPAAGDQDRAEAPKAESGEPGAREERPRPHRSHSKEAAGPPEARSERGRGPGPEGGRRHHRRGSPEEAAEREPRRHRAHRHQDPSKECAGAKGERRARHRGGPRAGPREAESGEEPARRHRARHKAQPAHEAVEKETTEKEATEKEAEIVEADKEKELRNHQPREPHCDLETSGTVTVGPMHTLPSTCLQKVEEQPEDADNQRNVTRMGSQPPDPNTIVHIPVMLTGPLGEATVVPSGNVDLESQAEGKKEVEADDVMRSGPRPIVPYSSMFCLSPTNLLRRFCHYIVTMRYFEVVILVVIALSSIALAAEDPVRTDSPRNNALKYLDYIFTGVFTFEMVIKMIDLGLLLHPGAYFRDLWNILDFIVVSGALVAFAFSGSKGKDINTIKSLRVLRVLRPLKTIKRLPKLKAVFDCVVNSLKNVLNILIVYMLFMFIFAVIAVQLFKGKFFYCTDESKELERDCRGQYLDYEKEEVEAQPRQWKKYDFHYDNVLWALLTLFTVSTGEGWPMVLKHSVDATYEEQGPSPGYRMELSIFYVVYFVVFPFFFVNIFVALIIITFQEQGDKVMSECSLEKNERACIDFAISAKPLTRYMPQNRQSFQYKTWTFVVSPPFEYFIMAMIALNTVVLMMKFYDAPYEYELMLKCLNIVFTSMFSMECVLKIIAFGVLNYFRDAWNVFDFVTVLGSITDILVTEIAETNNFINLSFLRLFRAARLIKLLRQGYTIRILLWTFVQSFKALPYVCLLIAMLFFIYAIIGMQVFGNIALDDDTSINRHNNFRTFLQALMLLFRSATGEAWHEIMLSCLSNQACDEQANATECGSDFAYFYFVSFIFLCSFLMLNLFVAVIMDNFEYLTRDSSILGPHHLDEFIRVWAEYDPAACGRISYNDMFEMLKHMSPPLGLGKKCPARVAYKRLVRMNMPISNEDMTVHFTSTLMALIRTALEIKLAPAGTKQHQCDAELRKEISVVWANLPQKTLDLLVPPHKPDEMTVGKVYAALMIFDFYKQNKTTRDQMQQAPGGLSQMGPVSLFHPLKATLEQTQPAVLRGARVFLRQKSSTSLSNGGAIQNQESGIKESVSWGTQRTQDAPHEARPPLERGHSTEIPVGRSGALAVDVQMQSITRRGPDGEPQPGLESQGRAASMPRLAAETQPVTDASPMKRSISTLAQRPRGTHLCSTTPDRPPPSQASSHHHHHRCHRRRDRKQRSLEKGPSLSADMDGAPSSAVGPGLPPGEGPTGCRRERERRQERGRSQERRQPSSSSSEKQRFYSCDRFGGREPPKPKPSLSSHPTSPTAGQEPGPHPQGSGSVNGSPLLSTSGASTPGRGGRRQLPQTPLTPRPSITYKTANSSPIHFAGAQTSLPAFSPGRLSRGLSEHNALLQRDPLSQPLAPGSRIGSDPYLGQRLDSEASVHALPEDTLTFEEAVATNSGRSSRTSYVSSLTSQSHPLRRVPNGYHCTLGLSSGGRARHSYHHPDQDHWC
T2 sequence (Q02410 whole entry): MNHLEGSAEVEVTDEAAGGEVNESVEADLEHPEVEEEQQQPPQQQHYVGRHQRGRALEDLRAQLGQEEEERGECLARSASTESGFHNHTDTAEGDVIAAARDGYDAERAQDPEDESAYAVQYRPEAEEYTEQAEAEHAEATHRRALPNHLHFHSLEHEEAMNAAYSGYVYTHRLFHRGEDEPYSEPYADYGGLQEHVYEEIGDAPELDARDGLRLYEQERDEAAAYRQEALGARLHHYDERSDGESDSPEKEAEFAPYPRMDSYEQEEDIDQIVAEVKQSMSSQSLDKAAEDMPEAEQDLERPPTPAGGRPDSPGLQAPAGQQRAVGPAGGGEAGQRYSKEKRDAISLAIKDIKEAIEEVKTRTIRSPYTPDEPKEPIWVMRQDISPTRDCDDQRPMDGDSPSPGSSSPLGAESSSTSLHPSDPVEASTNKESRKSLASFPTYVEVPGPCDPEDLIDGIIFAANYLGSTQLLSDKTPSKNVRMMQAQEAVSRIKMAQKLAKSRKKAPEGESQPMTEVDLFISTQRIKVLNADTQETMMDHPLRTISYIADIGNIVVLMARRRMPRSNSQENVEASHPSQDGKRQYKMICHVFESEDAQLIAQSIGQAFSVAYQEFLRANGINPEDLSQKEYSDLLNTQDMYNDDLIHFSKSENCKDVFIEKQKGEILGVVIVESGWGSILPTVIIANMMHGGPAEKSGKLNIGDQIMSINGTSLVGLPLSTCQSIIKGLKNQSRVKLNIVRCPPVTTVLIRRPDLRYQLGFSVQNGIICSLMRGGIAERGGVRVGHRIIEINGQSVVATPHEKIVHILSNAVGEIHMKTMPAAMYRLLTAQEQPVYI

[2] = biological target: T2, Voltage-gated N-type calcium channel alpha-1B subunit/Amyloid beta A4 precursor protein-binding family A member 1; type: protein assay; remark: listed apart in the source
Large T antigen = Large T antigen (Simian virus 40, UniProt P03070); type: functional, Betapolyomavirus macacae;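 note: Confirmatory-stage PubChem screen for compounds that inhibit SV40 T antigen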
[3] = biological target: T3, Microphthalmia-associated transcription factor (Homo sapiens, UniProt O75030); experiment: reducers of TRPM1 reporter luminescence, concentration series – cell-based, SK-MEL-5, cherry-picked, set 3, MITF inhibitor project, dose response (AID 493073); type: functional;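 note: SK-MEL-5 melanoma cells with luciferase driven by the MITF target TRPM1 promoter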
T3 sequence (O75030 whole entry): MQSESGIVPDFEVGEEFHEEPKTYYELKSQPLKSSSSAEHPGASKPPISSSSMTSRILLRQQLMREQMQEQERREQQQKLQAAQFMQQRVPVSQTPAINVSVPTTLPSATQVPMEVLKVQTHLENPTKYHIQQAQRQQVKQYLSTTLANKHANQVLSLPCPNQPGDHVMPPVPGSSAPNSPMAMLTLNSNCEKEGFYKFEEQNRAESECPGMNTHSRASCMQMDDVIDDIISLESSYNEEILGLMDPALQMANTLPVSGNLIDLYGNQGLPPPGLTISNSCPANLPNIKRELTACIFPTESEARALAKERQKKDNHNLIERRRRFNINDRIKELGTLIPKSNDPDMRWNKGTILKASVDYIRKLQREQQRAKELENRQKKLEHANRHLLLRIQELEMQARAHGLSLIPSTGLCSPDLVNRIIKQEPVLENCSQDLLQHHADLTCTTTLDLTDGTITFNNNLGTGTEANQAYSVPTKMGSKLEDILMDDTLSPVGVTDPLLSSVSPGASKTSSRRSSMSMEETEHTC

Coagulation factor XII = biological target: T4, Coagulation factor XII (Homo sapiens, UniProt P00748); type: functional;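 note: activated factor XIIa alpha cleaving a fluorogenic AMC peptide substrate; inhibitor potency from loss of enzyme activity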
T4 sequence (P00748 whole entry): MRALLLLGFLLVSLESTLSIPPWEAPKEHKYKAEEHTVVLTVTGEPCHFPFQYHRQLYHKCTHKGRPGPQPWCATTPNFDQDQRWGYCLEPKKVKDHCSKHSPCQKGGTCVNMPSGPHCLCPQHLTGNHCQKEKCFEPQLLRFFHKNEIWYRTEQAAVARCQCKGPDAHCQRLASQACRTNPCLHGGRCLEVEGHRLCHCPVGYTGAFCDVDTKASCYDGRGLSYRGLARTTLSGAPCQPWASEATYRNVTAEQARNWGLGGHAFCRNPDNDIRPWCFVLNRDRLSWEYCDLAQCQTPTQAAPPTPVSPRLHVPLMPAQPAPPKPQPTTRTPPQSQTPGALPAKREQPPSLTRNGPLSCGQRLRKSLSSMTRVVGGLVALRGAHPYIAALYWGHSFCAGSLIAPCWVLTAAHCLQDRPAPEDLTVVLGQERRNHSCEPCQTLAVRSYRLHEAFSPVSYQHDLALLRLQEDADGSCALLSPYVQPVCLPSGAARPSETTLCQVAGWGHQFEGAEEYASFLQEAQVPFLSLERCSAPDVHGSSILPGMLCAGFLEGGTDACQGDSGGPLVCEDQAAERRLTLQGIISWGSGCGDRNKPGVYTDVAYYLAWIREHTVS

[4] = biological target: T5, Rac GTPase-activating protein 1 (Homo sapiens, UniProt Q9H0H5); experiment: blockers of MgcRacGAP-driven Rac1 GTP hydrolysis – biochemical, ADP Hunter fluorescence, primary and confirmatory, confirmation (AID 624330); type: functional
T5 sequence (Q9H0H5 whole entry): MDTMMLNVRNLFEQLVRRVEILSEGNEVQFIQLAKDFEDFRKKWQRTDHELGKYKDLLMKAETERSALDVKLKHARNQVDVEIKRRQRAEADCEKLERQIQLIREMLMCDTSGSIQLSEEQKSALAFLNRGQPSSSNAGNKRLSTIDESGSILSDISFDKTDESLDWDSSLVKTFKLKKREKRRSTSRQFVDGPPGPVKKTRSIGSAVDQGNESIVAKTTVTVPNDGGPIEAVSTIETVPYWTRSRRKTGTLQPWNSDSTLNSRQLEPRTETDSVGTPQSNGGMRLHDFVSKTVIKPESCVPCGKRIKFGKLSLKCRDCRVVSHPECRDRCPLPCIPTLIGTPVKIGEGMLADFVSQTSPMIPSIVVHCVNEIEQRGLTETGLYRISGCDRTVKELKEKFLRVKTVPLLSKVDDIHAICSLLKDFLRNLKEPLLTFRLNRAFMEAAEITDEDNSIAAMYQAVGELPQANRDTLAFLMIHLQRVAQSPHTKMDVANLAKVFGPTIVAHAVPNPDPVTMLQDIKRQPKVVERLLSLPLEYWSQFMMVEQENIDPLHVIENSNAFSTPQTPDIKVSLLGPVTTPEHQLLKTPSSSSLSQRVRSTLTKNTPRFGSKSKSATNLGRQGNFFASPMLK

[5] = HEK-293T viability loss, compound-treated – cell-based, uHTS hits, cytotoxicity control for B/T-cell NF-kB inhibitor project, dose response (AID 489019); type: functional;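 note: IC50 reflects cytotoxicity as loss of cell viability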
[6] = alpha-synuclein stem-loop luciferase translation blockers – H4 neuroglioma cells, luminescence, confirmation (AID 1988); type: functional, cell-based
[7] = Luminescence Cell-Based Dose Response HTS to Identify Inhibitors of 5'UTR Stem-Loop Driven Prion Protein mRNA Translation in H4 Neuroglioblastoma Cells. [Related pubchem assays: 1827 (Project Summary), 1813 (Primary HTS)]; type: functional
[8] = viability loss in HeLa cells – cytotoxicity control for MgcRacGAP inhibitor project, dose response (AID 624300); type: functional
[9] = luciferase reporter signal suppression in cells – H4 neuroglioma cells, luminescence, dose response (AID 1990); type: functional, cell-based
Jurkat = experiment: blockers of NF-kB activation in T cells – Jurkat, luciferase reporter, luminescence, B- and T-cell, dose response (AID 489004); type: functional, cell-based; details: Homo sapiens;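 note: NF-kB luciferase reporter Jurkat cells stimulated with PMA plus ionomycin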
H9c2 = experiment: cells; type: functional, cell-based; details: Rattus norvegicus, H9c2, Myocardium;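 note: confirmatory concentration-response retest of ultra-high-throughput screening hits for modulation of myocardial damage; cell death induced by hydrogen peroxide oxidative stress; compound pretreatment for 60 min then peroxide exposure for 2 h; potency is for protecting the cells against peroxide damage rather than for killing them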
SUMO-activating enzyme = SUMO-activating enzyme (Homo sapiens, UniProt Q9UBT2); experiment: blockers of UBC9-mediated SUMO conjugation – biochemical, AlphaScreen, SUMOylation inhibitor project, confirmation (AID 2018); type: functional
Chain of SUMO-activating enzyme (Q9UBE0 whole entry, the tested form may be a part): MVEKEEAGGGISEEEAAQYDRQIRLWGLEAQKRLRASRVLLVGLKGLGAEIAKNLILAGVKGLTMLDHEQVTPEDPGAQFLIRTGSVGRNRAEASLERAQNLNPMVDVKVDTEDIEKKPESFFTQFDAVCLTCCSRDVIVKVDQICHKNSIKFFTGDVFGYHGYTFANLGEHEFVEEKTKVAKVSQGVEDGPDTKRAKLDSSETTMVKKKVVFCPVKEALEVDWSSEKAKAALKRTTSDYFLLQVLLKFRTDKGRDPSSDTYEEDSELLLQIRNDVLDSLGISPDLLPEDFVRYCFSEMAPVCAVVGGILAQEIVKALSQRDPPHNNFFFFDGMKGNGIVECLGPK
Chain of SUMO-activating enzyme (Q9UBT2 whole entry, the tested form may be a part): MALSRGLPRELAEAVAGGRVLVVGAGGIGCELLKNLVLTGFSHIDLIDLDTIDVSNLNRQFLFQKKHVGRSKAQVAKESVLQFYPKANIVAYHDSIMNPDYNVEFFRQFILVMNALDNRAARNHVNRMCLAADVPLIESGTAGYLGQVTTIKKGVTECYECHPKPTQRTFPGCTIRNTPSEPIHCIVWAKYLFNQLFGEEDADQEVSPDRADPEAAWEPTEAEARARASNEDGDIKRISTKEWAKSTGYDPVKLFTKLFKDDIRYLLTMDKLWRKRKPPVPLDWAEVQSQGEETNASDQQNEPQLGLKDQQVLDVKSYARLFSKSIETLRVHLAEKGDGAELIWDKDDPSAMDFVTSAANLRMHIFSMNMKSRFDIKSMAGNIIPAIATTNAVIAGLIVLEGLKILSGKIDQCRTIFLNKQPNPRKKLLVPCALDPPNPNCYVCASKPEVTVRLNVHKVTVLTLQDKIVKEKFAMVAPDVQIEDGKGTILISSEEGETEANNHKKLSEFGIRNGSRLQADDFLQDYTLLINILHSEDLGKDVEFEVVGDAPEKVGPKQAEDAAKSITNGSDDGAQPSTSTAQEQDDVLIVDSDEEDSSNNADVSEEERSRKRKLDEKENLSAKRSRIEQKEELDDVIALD

[10] = biological target: T6, Carboxy-terminal domain RNA polymerase II polypeptide A small phosphatase 1 (Homo sapiens, UniProt Q9GZU7); experiment: CTDSP1 inhibitors, concentration-response, biochemical, absorbance readout, ultra-high-throughput screen actives (AID 540297); type: functional
T6 sequence (Q9GZU7 whole entry): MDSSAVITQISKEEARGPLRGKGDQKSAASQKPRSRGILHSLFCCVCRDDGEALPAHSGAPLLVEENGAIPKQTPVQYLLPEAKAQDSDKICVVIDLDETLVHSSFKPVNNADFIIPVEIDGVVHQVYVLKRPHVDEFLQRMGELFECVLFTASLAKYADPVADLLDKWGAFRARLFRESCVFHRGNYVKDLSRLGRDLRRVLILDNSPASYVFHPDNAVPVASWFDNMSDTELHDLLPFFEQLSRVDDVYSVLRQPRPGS

[11] = biological target: Induced myeloid leukemia cell differentiation protein Mcl-1 (Homo sapiens, UniProt Q07820); type: functional
Chain of Induced myeloid leukemia cell differentiation protein Mcl-1 (Q07820 whole entry): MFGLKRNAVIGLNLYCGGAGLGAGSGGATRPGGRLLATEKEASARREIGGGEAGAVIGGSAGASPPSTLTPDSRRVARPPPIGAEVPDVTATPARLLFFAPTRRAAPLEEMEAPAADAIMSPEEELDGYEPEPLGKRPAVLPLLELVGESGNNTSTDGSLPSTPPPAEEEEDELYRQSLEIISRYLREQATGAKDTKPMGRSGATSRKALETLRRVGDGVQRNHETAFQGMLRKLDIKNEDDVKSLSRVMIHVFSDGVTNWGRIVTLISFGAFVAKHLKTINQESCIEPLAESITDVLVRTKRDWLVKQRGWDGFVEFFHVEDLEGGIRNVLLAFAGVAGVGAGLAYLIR

[12] = MIN6 cell viability loss – mouse insulinoma, cytotoxicity control, dose response (AID 2122); type: functional;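 note: confirmatory high-throughput counterscreen run to flag cytotoxic compounds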
[13] = reduction of Shn3 3'UTR-driven luciferase in osteoblasts – cell-based, Clone20 osteoblasts, firefly luciferase, cherry-picked, dose response (AID 624132); type: functional;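 note: firefly luciferase luminescence from reporter carrying the Shn3 3'UTR in osteoblasts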
Galanin receptor type 3 = biological target: T7, Galanin receptor type 3 (Homo sapiens, UniProt O60755); experiment: Fluorescence-based cell-based primary high throughput dose response assay to identify antagonists of the Galanin Receptor 3 (GalR3).; type: functional
T7 sequence (O60755 whole entry): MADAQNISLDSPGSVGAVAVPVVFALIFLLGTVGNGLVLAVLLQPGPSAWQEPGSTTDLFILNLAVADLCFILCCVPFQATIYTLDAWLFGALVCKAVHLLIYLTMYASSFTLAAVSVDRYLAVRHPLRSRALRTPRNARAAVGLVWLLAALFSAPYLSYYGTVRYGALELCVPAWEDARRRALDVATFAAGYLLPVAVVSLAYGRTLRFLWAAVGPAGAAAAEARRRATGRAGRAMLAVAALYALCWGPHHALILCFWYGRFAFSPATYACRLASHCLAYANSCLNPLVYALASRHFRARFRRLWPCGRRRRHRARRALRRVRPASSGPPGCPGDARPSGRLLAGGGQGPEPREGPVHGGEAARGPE

[14] = loss of viability in HepG2 cells – cell-based, CellTiter-Glo, cherry-picked, cytotoxicity control for Shn3 inhibitor project, dose response (AID 624134); type: functional
cells = type: functional, cell-based; details: HEK-CNG
[15] = decrease of insulin promoter-GFP reporter – imaging, high-content screening, mouse beta cells (AID 1628); type: functional; details: MIN6
[16] = non-specific 3'UTR reporter inhibition in Clone20-Shn3RL – cell-based, Renilla luciferase, cherry-picked, counter-screen for Shn3 inhibitor project, dose response (AID 624133); type: functional

CCOC(=O)C1Nc2ccccc2C2C(O)C(O)CC12 (stereo unspecified)
AC50 (ORF 73): > 350 µM (inactive)

O=C1NC(=O)C(=Cc2ccc(-c3cc(Cl)ccc3[N+](=O)[O-])o2)C(=O)N1
IC50 [1]: > 50 µM (inactive) | IC50 [2]: 4.58 µM (active) | IC50 (Large T antigen): 48.3 µM (active) | AC50 [3]: 17.2 µM (active)

O=C(CSc1nnc(COc2ccccc2)n1Cc1ccco1)c1ccc(F)cc1
IC50 (Coagulation factor XII): > 50 µM (inactive)

CC(C)C(OC(=O)c1cccs1)C(=O)NCc1ccc2c(c1)OCO2 (stereo unspecified)
IC50 (Coagulation factor XII): > 50 µM (inactive)

Cc1cc2c(c(=O)n1C)C(Cc1ccccc1)C(C#N)=C(N)O2 (stereo unspecified)
IC50 (Coagulation factor XII): > 50 µM (inactive)

COc1ccc(CNc2ncc(-c3ccc(F)cc3)n2C)c2ccccc12
IC50 [4]: 62.6 µM (active) | IC50 [5]: > 80 µM (inactive) | EC50 [6]: 1.22 µM (active) | EC50 [7]: 6.58 µM (active) | CC50 [8]: 100 µM (active) | EC50 [9]: 10 µM (active) | IC50 (Jurkat): 1.97 µM (active)

COc1cccc(OC)c1-c1nn2c(-c3ccco3)nnc2s1
IC50 (Coagulation factor XII): > 50 µM (inactive) | IC50 (H9c2): > 79 µM (inactive)

CC(C)c1ccc(NC(=O)c2ccc(Br)o2)cc1
IC50 (Coagulation factor XII): > 50 µM (inactive)

Nc1ccc2nc(-c3ccc(-c4nc5ccc(N)cc5[nH]4)cc3)[nH]c2c1
IC50 [1]: > 50 µM (inactive) | IC50 [2]: 5.62 µM (active) | IC50 (SUMO-activating enzyme): > 100 µM (inactive)

O=C(O)CCn1cc(C=C2C(=O)NC(=S)NC2=O)c(-c2cc3ccccc3oc2=O)n1
IC50 [1]: 6.27 µM (active) | IC50 [2]: 17.8 µM (active) | IC50 [10]: 13 µM (active) | IC50 [11]: 3.42 µM (active)

CC(=O)c1cn(Cc2ccccc2C#N)c2ccccc12
IC50 [12]: 0.64 µM (active) | AC50 [13]: 0.527 µM (active) | IC50 (Galanin receptor type 3): 3.07 µM (active) | IC50 [5]: > 80 µM (inactive) | AC50 [14]: 2.2 µM (active) | EC50 (cells): > 29.9 µM (inactive) | IC50 [15]: 1.01 µM (active) | AC50 [16]: 4.28 µM (active) | IC50 (Jurkat): 30 µM (inactive)

O=C(N/N=C/c1coc2ccccc2c1=O)c1cc(O)cc(O)c1
IC50 [1]: > 50 µM (inactive) | IC50 [2]: 7.54 µM (active)
